One series deals with ciliary motility. Conditions: cited from earlier work.
For series [1] the following is noted: aqueous solution at physiologic pH; cited from earlier work.
Series [2] is described as follows: Treatment of radiation-induced lung damage using nebulized enoxaparin and N-acetylcysteine. In kind it is in vivo, human. The method, then: This example describes treatment of radiation-induced lung damage using nebulized enoxaparin and N-acetylcysteine. A patient with unresectable lung cancer, such as locally advanced or metastatic stage III/oligometastatic IV non-small cell lung carcinoma, who has received radiation therapy is administered nebulized enoxaparin via inhalation. The enoxaparin is purified to remove elemental impurities, as described in EXAMPLE 1, and formulated in water at a concentration of 100 mg/mL for a nebulized composition as described in EXAMPLE 2. A dose of either 0.5 mg enoxaparin per kg patient weight (mg/kg), 1 mg/kg, or 2 mg/kg of the aqueous enoxaparin formulation is nebulized and administered to the subject via inhalation every 12 hours for 14 days, followed by 14 days of no enoxaparin treatment. N-acetylcysteine is administered by inhalation via nebulization at 600 mg per dose 30 minutes after each dose of enoxaparin. The 28-day treatment cycle begins 4-6 weeks after completion of radiation therapy, and the treatment cycle is repeated for up to 6 cycles in the absence of disease progression or unacceptable toxicity. The patient continues to receive best supportive care for the lung cancer (e.g., chemotherapy therapy) while undergoing enoxaparin treatment.
(§1) Additionally, the enoxaparin therapy may reduce the recurrence of the lung cancer by slowing cancer progression through inhibition of mutagenic proliferation, adhesion, angiogenesis, migration, and invasion of cancer cells.

Series [3] in a line: Treatment of chemotherapy-induced lung damage using nebulized heparin and N-acetylcysteine. In kind it is in vivo, human. As for the experimental part: This example describes treatment of chemotherapy-induced lung damage using nebulized heparin and N-acetylcysteine. A patient with unresectable lung cancer, such as locally advanced or metastatic stage III/oligometastatic IV non-small cell lung carcinoma, who is undergoing chemotherapy therapy with bleomycin, carmustine, lomustine, busulfan, daunorubicin, doxorubicin, or idarubicin is administered nebulized enoxaparin via inhalation. The enoxaparin is purified to remove elemental impurities, as described in EXAMPLE 1, and formulated in water at a concentration of 100 mg/mL for a nebulized composition as described in EXAMPLE 2. A dose of either 0.5 mg enoxaparin per kg patient weight (mg/kg), 1 mg/kg, or 2 mg/kg of the aqueous enoxaparin formulation is nebulized and administered to the subject via inhalation every 12 hours for 14 days, followed by 14 days of no enoxaparin treatment. N-acetylcysteine is administered by inhalation via nebulization at 600 mg per dose 30 minutes after each dose of enoxaparin. The 28-day treatment cycle is repeated for up to 6 cycles in the absence of disease progression or unacceptable toxicity. The patient continues to receive best supportive care for the lung cancer (e.g., chemotherapy therapy) while undergoing enoxaparin treatment.
as §1

Where [4] appears, read: same regimen, after radiation therapy.
[5] abbreviates: same regimen, during chemotherapy.

For “2-alkyl-4-hydroxyquinolines [pyo compound]”, the “concentration producing ciliostasis / inhibiting ciliary motility” value in the series on ciliary motility (ciliostatic factors from Pseudomonas aeruginosa) is 50 µg/mL.

For the molecule `CCN(CC)/[N+]([O-])=N/O.CCNCC` [diethylamine/NO], the “time scale of NO release” value in series [1] was less than 3 min.

As to `NCCN(CCN)/[N+]([O-])=N/O` [diethylenetriamine/NO], the “time scale of NO release” value in series [1] is listed as “approximately 20 hours”.

As for enoxaparin, in series [2] (patient with unresectable lung cancer after radiation therapy, 0.5, 1 or 2 mg/kg inhaled every 12 hours for 14 days, N-acetylcysteine 600 mg after each dose), the “development of radiation-induced pneumonitis” value is given as “treats, prevents, or slows the development”. Moreover, in series [2] (setting [4]), the airway inflammation entry is reported as “decreases airway inflammation”; the “coagulation activation and pulmonary venous thromboembolism” value was “prevents coagulation activation and pulmonary venous thromboembolism”; the “release of inflammatory cytokines, such as IL-6” value is “inhibits release”. Further, the “development of chemotherapy-induced pneumonitis” value in series [3] (patient with unresectable lung cancer undergoing chemotherapy, 0.5, 1 or 2 mg/kg inhaled every 12 hours for 14 days, N-acetylcysteine 600 mg after each dose) is listed as “treats, prevents, or slows the development”. In series [3] (setting [5]), the airway inflammation entry is reported as “decreases airway inflammation”; the “coagulation activation and pulmonary venous thromboembolism” value was “prevents coagulation activation and pulmonary venous thromboembolism”; the “release of inflammatory cytokines, such as IL-6” value is recorded as “inhibits release”.

Consider rhamnolipid, for which the effect on cilia result in the series on ciliary motility (limited exposure of tracheal explants) was “resulted in ciliostasis”.

The values are drawn from patent publication US20260034166A1, “HEPARIN COMPOSITIONS FOR TREATMENT OF LUNG DAMAGE AND METHODS OF USE THEREOF” (Atossa Therapeutics, Inc., priority 2022, published 2026).
